From ChEMBL document CHEMBL1201862, “PubChem BioAssay data set” (2004)
Calls of active or inactive are those of the source.

Assays:
[1] = target: Voltage-gated N-type calcium channel alpha-1B subunit/Amyloid beta A4 precursor protein-binding family A member 1 (Homo sapiens, UniProt Q00975+Q02410); assay: disruptors of Mint-PDZ/N-type channel peptide interaction – biochemical, HTRF, SAR follow-up (AID 2489); format: functional
[2] = target: T1, Microphthalmia-associated transcription factor (Homo sapiens, UniProt O75030); assay: reducers of TRPM1 reporter luminescence, concentration series – cell-based, SK-MEL-5, cherry-picked, set 3, MITF inhibitor project, dose response (AID 493073); format: functional;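 note: SK-MEL-5 melanoma cells with luciferase driven by the MITF target TRPM1 promoter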
T1 sequence (O75030 whole entry): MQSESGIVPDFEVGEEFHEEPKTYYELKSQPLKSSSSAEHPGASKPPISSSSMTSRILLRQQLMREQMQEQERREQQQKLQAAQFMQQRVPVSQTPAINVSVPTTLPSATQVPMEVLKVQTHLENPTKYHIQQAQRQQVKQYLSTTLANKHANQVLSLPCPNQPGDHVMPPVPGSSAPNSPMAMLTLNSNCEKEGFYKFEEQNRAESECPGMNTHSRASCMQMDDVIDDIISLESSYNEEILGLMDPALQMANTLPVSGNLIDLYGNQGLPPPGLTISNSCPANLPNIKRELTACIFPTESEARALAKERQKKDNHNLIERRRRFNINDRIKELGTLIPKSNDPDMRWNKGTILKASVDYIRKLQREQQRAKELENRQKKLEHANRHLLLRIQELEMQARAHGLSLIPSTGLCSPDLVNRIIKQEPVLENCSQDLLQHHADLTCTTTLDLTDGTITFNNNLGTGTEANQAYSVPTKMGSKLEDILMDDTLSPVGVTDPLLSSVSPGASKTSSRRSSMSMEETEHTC

Melanocortin receptor 4 = Melanocortin receptor 4 (Homo sapiens, UniProt P32245); format: functional, cell-based;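 note: Cell-based assay with luminescence read-out, confirmatory dose-response testing for agonist activity of biased ligands at MC4R; human U2OS cells with tagged receptor and beta-arrestin; potency of agonists that increase receptor coupling to beta-arrestin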
Chain of Melanocortin receptor 4 (P32245 whole entry): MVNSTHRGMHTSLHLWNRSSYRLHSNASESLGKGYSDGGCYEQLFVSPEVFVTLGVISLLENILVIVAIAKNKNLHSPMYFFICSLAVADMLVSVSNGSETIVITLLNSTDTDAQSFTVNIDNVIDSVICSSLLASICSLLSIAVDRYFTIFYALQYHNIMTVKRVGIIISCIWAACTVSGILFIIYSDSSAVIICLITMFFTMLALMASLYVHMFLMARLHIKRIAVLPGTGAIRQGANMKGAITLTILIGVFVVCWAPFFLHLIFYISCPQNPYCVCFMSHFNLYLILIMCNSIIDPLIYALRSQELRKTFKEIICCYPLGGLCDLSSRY

[3] = target: DNA damage-inducible transcript 3 protein (Mus musculus, UniProt P35639); format: functional, Cricetulus griseus
J774.A1 = assay: Confirmation of image-based Screening Assay for Inhibitors of Phagocytosis. [Related pubchem assays (depositor defined):AID1029, AID1643]; format: functional, cell-based; details: Mus musculus
Fatty acid synthase [4] = target: T2, Fatty acid synthase (Homo sapiens, UniProt P49327); assay: inhibition of human FAS-TE enzyme activity – biochemical, kinetic fluorescence intensity, dose response (AID 624326); format: functional;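 note: rate of fluorescence rise from hydrolysis of a fluorogenic O-methyl fluorescein ester substrate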
T2 sequence (P49327 whole entry): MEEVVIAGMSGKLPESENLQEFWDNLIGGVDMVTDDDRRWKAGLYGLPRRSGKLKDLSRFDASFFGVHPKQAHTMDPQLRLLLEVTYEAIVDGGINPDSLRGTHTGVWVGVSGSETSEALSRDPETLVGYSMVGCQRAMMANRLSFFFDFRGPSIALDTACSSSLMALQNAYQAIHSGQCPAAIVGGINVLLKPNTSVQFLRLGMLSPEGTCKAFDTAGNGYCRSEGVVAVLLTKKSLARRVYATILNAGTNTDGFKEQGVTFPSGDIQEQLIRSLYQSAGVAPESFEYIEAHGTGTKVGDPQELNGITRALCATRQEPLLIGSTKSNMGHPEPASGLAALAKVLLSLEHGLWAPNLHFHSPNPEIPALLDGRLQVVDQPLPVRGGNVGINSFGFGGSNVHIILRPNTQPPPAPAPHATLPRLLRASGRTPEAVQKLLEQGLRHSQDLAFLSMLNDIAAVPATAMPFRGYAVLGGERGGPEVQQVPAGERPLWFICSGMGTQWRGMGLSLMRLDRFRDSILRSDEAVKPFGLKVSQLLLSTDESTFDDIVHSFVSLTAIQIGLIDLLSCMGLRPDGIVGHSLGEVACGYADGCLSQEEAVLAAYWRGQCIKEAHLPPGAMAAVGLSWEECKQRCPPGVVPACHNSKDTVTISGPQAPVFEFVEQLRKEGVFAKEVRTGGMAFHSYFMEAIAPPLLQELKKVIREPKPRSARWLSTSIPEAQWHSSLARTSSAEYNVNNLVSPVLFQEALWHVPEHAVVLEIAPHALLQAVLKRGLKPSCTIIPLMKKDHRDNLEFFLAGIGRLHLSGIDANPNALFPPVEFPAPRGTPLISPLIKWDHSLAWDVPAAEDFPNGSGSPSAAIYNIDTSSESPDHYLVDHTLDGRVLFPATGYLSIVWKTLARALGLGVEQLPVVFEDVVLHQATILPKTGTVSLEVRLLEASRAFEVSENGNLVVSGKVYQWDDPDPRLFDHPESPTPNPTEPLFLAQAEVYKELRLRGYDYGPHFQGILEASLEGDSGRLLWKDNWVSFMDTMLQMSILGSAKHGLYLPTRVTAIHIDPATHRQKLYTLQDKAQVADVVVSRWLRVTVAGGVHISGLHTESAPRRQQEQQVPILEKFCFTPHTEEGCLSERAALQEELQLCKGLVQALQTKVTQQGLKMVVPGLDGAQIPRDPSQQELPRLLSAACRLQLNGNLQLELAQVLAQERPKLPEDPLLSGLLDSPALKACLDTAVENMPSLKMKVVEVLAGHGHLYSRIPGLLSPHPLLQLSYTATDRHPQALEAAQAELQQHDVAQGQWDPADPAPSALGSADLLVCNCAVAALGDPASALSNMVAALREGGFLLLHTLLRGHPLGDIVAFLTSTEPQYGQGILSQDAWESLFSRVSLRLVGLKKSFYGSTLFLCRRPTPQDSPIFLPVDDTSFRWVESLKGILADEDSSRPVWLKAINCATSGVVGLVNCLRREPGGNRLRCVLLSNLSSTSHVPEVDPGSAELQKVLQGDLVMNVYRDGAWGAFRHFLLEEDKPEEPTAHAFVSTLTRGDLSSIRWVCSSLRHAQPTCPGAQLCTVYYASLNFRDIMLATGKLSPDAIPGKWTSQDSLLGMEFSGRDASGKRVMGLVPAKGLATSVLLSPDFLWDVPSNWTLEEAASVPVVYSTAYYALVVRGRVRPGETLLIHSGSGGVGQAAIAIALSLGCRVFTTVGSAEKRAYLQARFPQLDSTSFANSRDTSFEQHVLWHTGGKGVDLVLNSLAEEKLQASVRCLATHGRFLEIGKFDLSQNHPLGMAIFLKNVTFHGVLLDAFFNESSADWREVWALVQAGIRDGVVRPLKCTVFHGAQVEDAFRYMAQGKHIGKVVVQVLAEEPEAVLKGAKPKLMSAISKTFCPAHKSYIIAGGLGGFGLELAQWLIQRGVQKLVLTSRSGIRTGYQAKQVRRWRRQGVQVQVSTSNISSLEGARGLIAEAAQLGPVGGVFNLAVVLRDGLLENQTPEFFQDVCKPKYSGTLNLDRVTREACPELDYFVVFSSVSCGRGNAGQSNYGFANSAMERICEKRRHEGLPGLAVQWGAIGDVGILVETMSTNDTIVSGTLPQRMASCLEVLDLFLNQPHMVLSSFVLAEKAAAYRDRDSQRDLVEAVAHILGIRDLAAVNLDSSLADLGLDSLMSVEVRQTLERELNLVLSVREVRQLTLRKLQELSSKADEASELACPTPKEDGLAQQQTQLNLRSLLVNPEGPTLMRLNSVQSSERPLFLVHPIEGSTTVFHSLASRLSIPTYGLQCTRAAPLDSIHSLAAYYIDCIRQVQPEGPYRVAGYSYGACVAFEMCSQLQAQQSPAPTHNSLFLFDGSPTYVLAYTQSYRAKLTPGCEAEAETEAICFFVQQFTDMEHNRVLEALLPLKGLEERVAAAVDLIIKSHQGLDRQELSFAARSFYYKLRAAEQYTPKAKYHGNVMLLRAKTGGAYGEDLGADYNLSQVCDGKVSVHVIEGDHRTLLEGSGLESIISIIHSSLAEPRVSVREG

fMet-Leu-Phe receptor = fMet-Leu-Phe receptor (Homo sapiens, UniProt P21462); assay: formyl peptide receptor binders – dose response (AID 519); format: functional
Chain of fMet-Leu-Phe receptor (P21462 whole entry): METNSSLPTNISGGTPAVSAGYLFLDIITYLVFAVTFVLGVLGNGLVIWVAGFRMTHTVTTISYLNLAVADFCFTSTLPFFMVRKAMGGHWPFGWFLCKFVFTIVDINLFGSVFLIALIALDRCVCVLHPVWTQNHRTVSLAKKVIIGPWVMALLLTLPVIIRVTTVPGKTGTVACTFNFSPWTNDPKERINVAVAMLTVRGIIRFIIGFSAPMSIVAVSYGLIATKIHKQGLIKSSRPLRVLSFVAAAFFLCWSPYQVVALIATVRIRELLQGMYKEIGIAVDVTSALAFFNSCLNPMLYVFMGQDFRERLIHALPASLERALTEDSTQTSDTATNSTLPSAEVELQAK

Genome polyprotein = Genome polyprotein (dengue virus type 2, UniProt P29990); assay: flavivirus cap methylation enzyme inhibition – biochemical, confirmation dose response, primary screen (AID 588689); format: functional
Streptococcus = assay: GAS UMAA2166 growth inhibition – luminescence, BacTiterGlo, counter-screen for streptokinase expression inhibitor project, dose response (AID 1915); format: functional, organism-based;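 note: potency for reduction of bacterial viability or growth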
[5] = system: Streptococcus sp. 'group A'; assay: Streptococcus pyogenes SK(-)GAS viability under kanamycin – luminescence, BacTiterGlo, confirmation, counter-screen for streptokinase expression inhibitor project, dose response (AID 1900); format: functional, organism-based
[6] = target: T3, Probable nicotinate-nucleotide adenylyltransferase (Staphylococcus aureus (strain N315), UniProt P65502); format: functional, Staphylococcus aureus subsp. aureus N315; details: read-out: IC50_Mean;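 for IC50 Mean: confirmatory dose-response retesting of NadD inhibitor hits first found in an ultra-high-throughput screen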
T3 sequence (P65502 whole entry): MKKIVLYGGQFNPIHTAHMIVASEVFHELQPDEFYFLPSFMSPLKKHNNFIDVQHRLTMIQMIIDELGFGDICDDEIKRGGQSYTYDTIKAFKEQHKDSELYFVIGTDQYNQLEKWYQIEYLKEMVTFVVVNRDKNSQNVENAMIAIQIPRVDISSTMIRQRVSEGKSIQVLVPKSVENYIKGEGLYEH

Fatty acid synthase [7] = target: T2, Fatty acid synthase; assay: inhibition of human FAS-TE enzyme activity – biochemical, endpoint fluorescence intensity, uHTS hits, dose response (AID 624327); format: functional;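 note: fluorescence from hydrolysis of an O-methyl fluorescein acyl ester substrate by the enzyme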
Beta-galactosidase = Beta-galactosidase (Escherichia coli, UniProt Q8VNN2); assay: detection-enzyme interference by beta-gal modulators – biochemical, E. coli enzyme, set 3, artefact control for CCR6 antagonist project, dose response (AID 504712); format: functional
[8] = target: T3, Probable nicotinate-nucleotide adenylyltransferase; format: functional, Staphylococcus aureus subsp. aureus N315
Vero = assay: viability of Vero cells under compound – cytotoxicity control for flavivirus capping enzyme inhibitors (AID 588742); format: functional; details: Chlorocebus sabaeus
[9] = target: T4, Protein phosphatase methylesterase 1 (Homo sapiens, UniProt Q9Y570); assay: Late stage results from the probe development effort to identify inhibitors of the protein methylesterase PME-1: Gel-based Activity-Based Protein Profiling (ABPP) IC50: Purified enzyme.; format: functional
T4 sequence (Q9Y570 whole entry): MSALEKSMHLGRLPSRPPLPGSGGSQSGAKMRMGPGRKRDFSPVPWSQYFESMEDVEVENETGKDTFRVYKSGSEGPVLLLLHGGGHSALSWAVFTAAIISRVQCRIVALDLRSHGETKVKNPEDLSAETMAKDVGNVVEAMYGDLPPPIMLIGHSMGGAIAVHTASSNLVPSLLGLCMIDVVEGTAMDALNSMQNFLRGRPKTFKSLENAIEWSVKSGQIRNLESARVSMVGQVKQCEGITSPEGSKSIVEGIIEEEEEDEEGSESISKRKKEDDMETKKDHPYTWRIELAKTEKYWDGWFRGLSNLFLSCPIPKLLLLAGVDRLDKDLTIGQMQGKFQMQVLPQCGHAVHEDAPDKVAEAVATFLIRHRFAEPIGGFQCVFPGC

[10] = target: T4, Protein phosphatase methylesterase 1; assay: endogenous PME-1 and serine hydrolase inhibition – cell lysate, mouse brain cytosol, FP-rhodamine, gel ABPP, selectivity assay for PME-1 inhibitor project, dose response, panel member PME-1 Assay Panel member description: Inhibition of endogenously expressed PME-1 (AID 2366)
[11] = target: NACHT, LRR and PYD domains-containing protein 3 (Homo sapiens, UniProt Q96P20); assay: NALP3 inhibitors in yeast, dose response, luminescent (AID 488799); format: functional
INS1 = assay: INS-1E survival protection against cytokine death – cell-based, luminescence, retest, dose response (AID 449756); format: functional; details: Rattus norvegicus;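 note: cell death triggered by IL-1 beta plus TNF-alpha plus IFN-gamma mixture; protective hits raise ATP signal compared with cytokine alone wells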
HEK293 [12] = assay: cells; format: functional, cell-based; details: Homo sapiens
HEK293 [13] = assay: cells; format: functional, cell-based; details: Homo sapiens; remark: listed apart in the source
Interleukin-8 [14] = target: T5, Interleukin-8 (Homo sapiens, UniProt P10145); assay: SAR analysis of GM-Tri-DAP induced IL-8 secretion in MCF-7/NOD1 cells - Set 2. [Related pubchem assays (depositor defined):AID1575, AID1578, AID2333]; format: functional, cell-based
T5 sequence (P10145 whole entry): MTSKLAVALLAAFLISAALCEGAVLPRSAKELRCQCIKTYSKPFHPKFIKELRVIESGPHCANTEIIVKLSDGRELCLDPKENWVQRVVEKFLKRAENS

[15] = target: T6, Nucleotide-binding oligomerization domain-containing protein 1 (Homo sapiens, UniProt Q9Y239); assay: blockers of NOD1 pathway activity – revised, SAR follow-up (AID 2333); format: functional
T6 sequence (Q9Y239 whole entry): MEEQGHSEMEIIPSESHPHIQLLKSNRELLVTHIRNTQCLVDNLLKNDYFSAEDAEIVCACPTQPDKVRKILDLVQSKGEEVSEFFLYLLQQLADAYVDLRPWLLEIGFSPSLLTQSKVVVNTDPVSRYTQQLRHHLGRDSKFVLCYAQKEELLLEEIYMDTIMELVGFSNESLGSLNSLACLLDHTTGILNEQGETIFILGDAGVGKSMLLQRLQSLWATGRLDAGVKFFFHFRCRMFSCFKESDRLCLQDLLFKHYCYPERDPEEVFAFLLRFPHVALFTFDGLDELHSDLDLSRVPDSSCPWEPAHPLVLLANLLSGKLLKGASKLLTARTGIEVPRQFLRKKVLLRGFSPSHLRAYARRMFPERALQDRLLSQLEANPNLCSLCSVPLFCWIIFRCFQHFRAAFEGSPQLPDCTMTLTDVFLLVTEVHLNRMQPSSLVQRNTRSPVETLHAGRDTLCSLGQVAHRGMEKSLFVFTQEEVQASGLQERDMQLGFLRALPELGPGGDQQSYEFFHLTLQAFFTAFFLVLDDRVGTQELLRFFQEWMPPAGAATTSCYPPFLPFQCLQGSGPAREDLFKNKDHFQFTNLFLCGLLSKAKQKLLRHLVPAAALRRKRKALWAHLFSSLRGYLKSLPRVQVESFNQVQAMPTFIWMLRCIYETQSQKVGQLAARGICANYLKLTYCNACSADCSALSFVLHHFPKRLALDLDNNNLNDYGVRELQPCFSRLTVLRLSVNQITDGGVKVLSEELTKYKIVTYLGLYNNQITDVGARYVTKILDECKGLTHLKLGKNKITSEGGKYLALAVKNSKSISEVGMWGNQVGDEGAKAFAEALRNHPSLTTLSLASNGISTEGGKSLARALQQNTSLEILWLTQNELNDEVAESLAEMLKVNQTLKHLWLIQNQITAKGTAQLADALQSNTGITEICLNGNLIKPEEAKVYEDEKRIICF

HEK293 [16] = assay: SAR analysis of compounds that are cytotoxic to HEK293 - Set 2. [Related pubchem assays (depositor defined):AID1575, AID1578, AID1849, AID2001, AID2333, AID2334, AID2335, AID2337, AID2800]; format: functional, cell-based; details: Homo sapiens
[17] = NIH3T3 cell viability loss – ATP luminescence, mouse fibroblasts, counter-screen, dose response (AID 2010); format: functional, cell-based;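 note: cells exposed to compound for about 90 hours before reading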
[18] = Trypanosoma cruzi growth suppression in host cells – NIH3T3 host cells, beta-gal luminescence, confirmation (AID 2044); format: functional, cell-based;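 note: intracellular parasites grown in NIH/3T3 mouse fibroblasts as host cells; luminescent beta-galactosidase reporter signal from transgenic T. cruzi replicating inside host cells; inhibitors lower the luminescence signal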
Tumor necrosis factor = Tumor necrosis factor (Homo sapiens, UniProt P01375); assay: analog potency on TNFa NF-kB signaling – cell-based, revised, SAR follow-up (AID 2337); format: functional
Chain of Tumor necrosis factor (P01375 whole entry, the tested form may be a part): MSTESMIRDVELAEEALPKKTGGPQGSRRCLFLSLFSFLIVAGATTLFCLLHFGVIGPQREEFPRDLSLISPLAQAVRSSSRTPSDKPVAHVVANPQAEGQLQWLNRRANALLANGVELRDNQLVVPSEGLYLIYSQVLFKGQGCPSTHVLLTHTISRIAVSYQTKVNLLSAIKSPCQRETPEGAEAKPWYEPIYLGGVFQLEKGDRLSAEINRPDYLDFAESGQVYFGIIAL

[19] = target: T7, Nucleotide-binding oligomerization domain-containing protein 2 (Homo sapiens, UniProt Q9HC29); assay: PubChem AID 2334; format: functional
T7 sequence (Q9HC29 whole entry, the tested form may be a part): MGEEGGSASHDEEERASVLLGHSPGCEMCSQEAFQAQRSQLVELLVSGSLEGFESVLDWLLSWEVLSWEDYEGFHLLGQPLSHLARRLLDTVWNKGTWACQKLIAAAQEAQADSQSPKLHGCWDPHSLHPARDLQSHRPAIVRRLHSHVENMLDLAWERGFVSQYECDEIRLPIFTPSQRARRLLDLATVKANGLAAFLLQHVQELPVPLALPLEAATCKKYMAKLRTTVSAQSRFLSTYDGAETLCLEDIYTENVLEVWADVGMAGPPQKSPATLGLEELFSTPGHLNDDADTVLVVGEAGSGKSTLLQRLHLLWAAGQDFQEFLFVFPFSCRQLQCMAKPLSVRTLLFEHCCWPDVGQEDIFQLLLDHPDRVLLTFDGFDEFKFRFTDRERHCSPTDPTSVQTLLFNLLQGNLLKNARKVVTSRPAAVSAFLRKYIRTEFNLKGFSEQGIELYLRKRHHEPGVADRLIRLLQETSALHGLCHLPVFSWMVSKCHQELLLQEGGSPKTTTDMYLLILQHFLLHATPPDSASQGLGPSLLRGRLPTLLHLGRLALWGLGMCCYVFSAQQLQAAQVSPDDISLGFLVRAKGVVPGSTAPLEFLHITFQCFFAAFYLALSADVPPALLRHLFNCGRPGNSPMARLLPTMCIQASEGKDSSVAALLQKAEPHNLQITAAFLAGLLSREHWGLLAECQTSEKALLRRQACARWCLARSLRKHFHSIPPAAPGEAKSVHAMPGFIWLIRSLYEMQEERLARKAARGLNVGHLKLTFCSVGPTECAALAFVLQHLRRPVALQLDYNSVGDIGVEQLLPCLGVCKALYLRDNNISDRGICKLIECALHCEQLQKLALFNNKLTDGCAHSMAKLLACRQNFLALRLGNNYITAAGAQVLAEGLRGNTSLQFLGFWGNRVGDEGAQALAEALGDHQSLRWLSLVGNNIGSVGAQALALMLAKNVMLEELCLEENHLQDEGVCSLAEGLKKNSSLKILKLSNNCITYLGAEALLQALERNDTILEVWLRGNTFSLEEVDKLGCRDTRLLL

[20] = target: T6, Nucleotide-binding oligomerization domain-containing protein 1; assay: SAR analysis of compounds that inhibit NOD1 - Set 2. [Related pubchem assays (depositor defined):AID1566, AID1575, AID1578, AID1849, AID1852, AID2333, AID2335, AID2798]; format: functional
[21] = target: T7, Nucleotide-binding oligomerization domain-containing protein 2; assay: inhibition of NOD2 signaling – set 2, SAR follow-up (AID 2475); format: functional
[22] = target: T7, Nucleotide-binding oligomerization domain-containing protein 2; assay: inhibition of NOD2-driven NF-kB reporter – cell-based, luminescence, uHTS, HEK293 (AID 1566); format: functional
HEK293 [23] = assay: inhibition of NOD1-driven NF-kB reporter – cell-based, luminescence, uHTS, primary screen (AID 1578); format: functional; details: Homo sapiens
HEK293 [24] = assay: cells; details: Homo sapiens
Interleukin-8 [25] = target: T5, Interleukin-8; assay: SAR analysis of Tumor necrosis factor alpha (TNF-alpha) induced IL-8 secretion in MCF-7/NOD1 cells - Set 2. [Related pubchem assays (depositor defined):AID1575, AID2250, AID2260]; format: functional, cell-based
HEK293 [26] = assay: cells; format: functional, cell-based; details: Homo sapiens; remark: listed apart in the source
HEK293 [27] = assay: NOD2 signaling inhibitors in MDP-stimulated cells, cell-based, uHTS, luminescence (AID 2001); format: functional; details: Homo sapiens
Hexokinase = Hexokinase (Trypanosoma brucei, UniProt Q38C41); assay: Confirmation assay for inhibitors of Trypanosoma brucei hexokinase 1-Analogue-first series. [Related pubchem assays (depositor defined):AID1430, AID1632, AID2516, AID2560, AID2579, AID2600, AID449725, AID492951]; format: functional
cells [28] = format: functional
[29] = Vero E6 cell cytotoxicity, dose response, cytotoxicity control for non-replicating M. tuberculosis project, secondary assay (AID 492998); format: functional, VeroE6; details: Vero C1008
[30] = THP-1 cell cytotoxicity, dose response, cytotoxicity control for non-replicating M. tuberculosis project (AID 489025); format: functional
cells [31] = format: functional, cell-based; details: PPC-1
MDA-MB-435 = assay: cells; format: functional, cell-based; details: Homo sapiens

CCOC(=O)N1CCN(C(=O)c2ccc3nc(-c4ccco4)c(-c4ccco4)nc3c2)CC1
IC50 [1]: 42.5 µM (active)

COc1cc(NC(=O)COc2ccccc2[N+](=O)[O-])ccc1NC(=O)c1cccs1
AC50 [2]: 10.1 µM (active) | EC50 (Melanocortin receptor 4): > 89.2 µM (inactive) | Absolute IC50 (CHOP) [3]: 10 µM

Cn1cc(C=Nn2cnc3scc(-c4ccc(Cl)cc4)c3c2=O)c2ccccc21
IC50 (J774.A1): < 0.05 µM (inactive)

Cc1nn2c(O)cc(-c3ccc([N+](=O)[O-])cc3)nc2c1-c1ccccc1
IC50 (Fatty acid synthase [4]): 6.29 µM (active) | Ki (fMet-Leu-Phe receptor): > 66.7 µM (inactive) | IC50 (Genome polyprotein): 36.5 µM (active) | EC50 (Streptococcus): 1.44 µM (active) | EC50 [5]: 0.662 µM (active) | IC50 [6]: 30.2 µM (active) | IC50 (Fatty acid synthase [7]): 11.2 µM (active) | IC50 (Beta-galactosidase): > 66.6 µM (inactive) | IC50 [8]: 8.02 µM (active) | CC50 (Vero): 29.6 µM (active)

CS(=O)(=O)C(=Cc1cccn1S(=O)(=O)c1ccccc1)S(C)(=O)=O
IC50 [9]: > 20 µM (not active) | IC50 [10]: > 20 µM (inactive)

CC(=O)Oc1c(I)cc(I)cc1C(=O)Nc1ccc(Cl)cc1 [CLIOXANIDE]
IC50 [11]: 1.61 µM (active) | AC50 (INS1): 12.5 µM (active) | EC50 (Streptococcus): 0.76 µM (active) | EC50 [5]: 0.377 µM (active)

O=C(Nc1nc2ccccc2n1Cc1ccc(Cl)cc1)c1ccco1
IC50 (HEK293 [12]): > 20 µM (inactive) | IC50 (HEK293 [13]): > 20 µM (inactive) | IC50 (Interleukin-8 [14]): > 25 µM (inactive) | IC50 [15]: > 20 µM (inactive) | IC50 (HEK293 [16]): > 20 µM (inactive) | EC50 [17]: > 60 µM (not active) | EC50 [18]: 1.72 µM (active) | IC50 (Tumor necrosis factor): > 20 µM (inactive) | IC50 [19]: > 20 µM (inactive) | IC50 [20]: 3.47 µM (active) | IC50 [21]: 3.63 µM (active) | EC50 [22]: > 20 µM (inactive) | EC50 (HEK293 [23]): > 20 µM (inactive) | IC50 (HEK293 [24]): > 20 µM (inactive) | IC50 (Interleukin-8 [25]): > 25 µM (inactive) | IC50 (HEK293 [26]): > 20 µM (inactive) | IC50 (HEK293 [27]): 1.96 µM (active)

O=C1CCN(C(=O)Nc2cc(Cl)ccc2C(=O)O)CC1
IC50 (Hexokinase): > 25 µM (inactive)

O=C(N/N=C\c1ccc(Cl)s1)C1COc2ccccc2O1 (centres undefined)
IC50 (cells [28]): 5.63 µM (active) | CC50 [29]: 19.4 µM (active) | CC50 [30]: 16.3 µM (active)

CSc1nc(-c2ccccc2)nc(-c2ccccc2OC(C)=O)n1
IC50 (cells [31]): > 10 µM (inactive) | IC50 (MDA-MB-435): > 10 µM (inactive)
